Source: US12649907B2, “Alternate detergents for viral inactivation” (AMGEN INC., priority 2019, dated 2026)

How the values were obtained:
[1] = as indicated by the Hampton Kit; cited from earlier work
xMuLV = assay type: cell-based, xenotropic murine leukemia virus; details: initial screen, 10× CMC or 10% w/v, 30 minutes, 15° C., 5% virus spike, PG4 cells

For `CCCCCCCCCCCC(=O)OC[C@@H](O)COP(=O)([O-])OCC[N+](C)(C)C` [LysoFos ™ Choline 12], the CMC [1] is listed as 0.7 mM.
In the case of `CCCCCCCCS[C@@H]1O[C@H](CO)[C@@H](O)[C@H](O)[C@H]1O` [n-Octyl-β-D-Thioglucoside], the CMC [1] is given as 9 mM.
In the case of `CCCCCCCC(=O)N(C)C[C@H](O)[C@@H](O)[C@H](O)[C@H](O)CO` [MEGA-8], the CMC [1] is listed as 79 mM.
For `CCCCCCO[C@@H]1O[C@H](CO)[C@@H](O)[C@H](O)[C@H]1O` [n-Hexyl-b-D-glucopyranoside], the CMC [1] is listed as 250 mM.
In the case of `CCCCCCCCC(=O)N(CCO)C[C@H](O)[C@@H](O)[C@H](O)[C@H](O)CO` [HEGA ®-9], the CMC [1] is given as 39 mM.
In the case of `CCCCCCCCO[C@@H]1O[C@H](CO)[C@@H](O)[C@H](O)[C@H]1O` [n-Octyl-b-D-glucoside], the CMC [1] is listed as 20 mM.
For `CCCCCCCCCO[C@@H]1O[C@H](CO)[C@@H](O[C@H]2O[C@H](CO)[C@@H](O)[C@H](O)[C@H]2O)[C@H](O)[C@H]1O` [n-Nonyl-b-D-maltoside], the CMC [1] is given as 6 mM.
In the case of `CCCCCCCCCCCCCC(=O)OC[C@@H](O)COP(=O)([O-])OCC[N+](C)(C)C` [LysoFos ™ Choline 14], the CMC [1] is listed as 0.036 mM.
For `CCCCCCCC(=O)N(CCO)C[C@H](O)[C@@H](O)[C@H](O)[C@H](O)CO` [HEGA ®-8], the CMC [1] is given as 109 mM.
In the case of `CCCCCCCCOCCOCCOCCOCCOCCOCCO` [Hexaethylene glycol monooctyl ether], the CMC [1] is given as 10 mM.
For `CCCCCCCCCCOCCOCCOCCOCCOCCOCCOCCOCCOCCO` [Anapoe C10E9], the “Viral inactivation towards xMuLV (CPE)” value (xMuLV) was “did not”.
In the case of `CCCCCCCCCCOP(=O)(O)OCCNC` [FOS-MEA ®-10], the CMC [1] is listed as 5.25 mM.
With `CCCCCCCCCCCCCOCCOCCOCCOCCOCCOCCOCCOCCO` [Anapoe C13E8] the “Viral inactivation towards xMuLV (CPE)” value (xMuLV) was “did not”.
In the case of `CCCCCCCCCCCO[C@@H]1O[C@H](CO)[C@@H](O[C@H]2O[C@H](CO)[C@@H](O)[C@H](O)[C@H]2O)[C@H](O)[C@H]1O` [n-Undecyl-b-D-maltoside], the CMC [1] is given as 0.59 mM.
For `O=C(CCC1CCCCC1)N(CCO)C[C@H](O)[C@@H](O)[C@H](O)[C@H](O)CO` [C-HEGA ®-9], the CMC [1] is listed as 108 mM.
In the case of `CCCCCCCC[N+](C)(C)CCCS(=O)(=O)[O-]` [ZWITTERGENT ® 3-08], the CMC [1] is listed as 330 mM.
For `O=C(CCCCC1CCCCC1)N(CCO)CC(O)C(O)C(O)C(O)CO` (stereo not drawn) [C-HEGA ®-11], the CMC [1] is listed as 11.5 mM.
In the case of `CC(C)CC(CC(C)C)O[C@@H]1O[C@H](CO)[C@@H](O[C@H]2O[C@H](CO)[C@@H](O)[C@H](O)[C@H]2O)[C@H](O)[C@H]1O` [2,6-Dimethyl-4-heptyl-b-D-malto-pyranoside], the CMC [1] is listed as 27.5 mM.
In the case of `CCCCCCCCCCCCO[C@@H]1O[C@H](CO)[C@@H](O[C@H]2O[C@H](CO)[C@@H](O)[C@H](O)[C@H]2O)[C@H](O)[C@H]1O` [n-Dodecyl-b-D-maltoside], the CMC [1] is listed as 0.17 mM.
In the case of `CCCCCCCCCCCCCOC1OC(CO)C(OC2OC(CO)C(O)C(O)C2O)C(O)C1O` [n-Tridecyl-β-D-maltoside], the CMC [1] is listed as 0.033 mM.
In the case of `C[C@H](CCC(=O)NCCC[N+](C)(C)CCCS(=O)(=O)[O-])[C@H]1CC[C@H]2[C@@H]3[C@H](O)C[C@@H]4C[C@H](O)CC[C@]4(C)[C@H]3C[C@H](O)[C@]12C` [CHAPS], the CMC [1] is listed as 8 mM.
In the case of `CCCCCCCCCCO[C@@H]1O[C@H](CO)[C@@H](O[C@H]2O[C@H](CO)[C@@H](O)[C@H](O)[C@H]2O)[C@H](O)[C@H]1O` [n-Decyl-b-D-maltoside], the CMC [1] is given as 1.8 mM.
For `CCCCCCCCOCCOCCOCCOCCO` [Detergent C8E4], the CMC [1] is given as 8 mM.
In the case of `OC[C@H]1O[C@H](O[C@H]2[C@H](O)[C@@H](O)[C@H](OCCCCCCC3CCCCC3)O[C@@H]2CO)[C@H](O)[C@@H](O)[C@@H]1O` [CYMAL ®-6, 6-cyclohexyl-1-hexyl-β-D-maltoside], the CMC [1] is listed as 0.56 mM.
In the case of `CCCCCCCCCCCCOCCOCCOCCOCCOCCOCCOCCOCCOCCOCCO` [Anapoe C12E10], the “Viral inactivation towards xMuLV (CPE)” value (xMuLV) is reported as “did not”.
For `CCCCCCCCCCCC[N+](C)(C)CCCC(=O)[O-]` [DDMAB], the CMC [1] is given as 4.3 mM.
In the case of `C[C@H](CCC(=O)NCCC[N+](C)(C)CC(O)CS(=O)(=O)[O-])[C@H]1CC[C@H]2[C@@H]3[C@H](O)C[C@@H]4C[C@H](O)CC[C@]4(C)[C@H]3C[C@H](O)[C@]12C` (stereo partly drawn) [CHAPSO], the CMC [1] is listed as 8 mM.
In the case of `O=C(CCCC1CCCCC1)N(CCO)CC(O)C(O)C(O)C(O)CO` (stereo not drawn) [C-HEGA ®-10], the CMC [1] is listed as 35 mM.
For `OC[C@H]1O[C@H](O[C@H]2[C@H](O)[C@@H](O)[C@H](OCCCCCCCC3CCCCC3)O[C@@H]2CO)[C@H](O)[C@@H](O)[C@@H]1O` [CYMAL ®-7, 7-cyclohexyl-l-heptyl-β-D-maltoside], the CMC [1] is given as 0.19 mM.
In the case of `CCCCCCCCC(=O)N(C)C[C@H](O)[C@@H](O)[C@H](O)[C@H](O)CO` [MEGA-9], the CMC [1] is listed as 25 mM.
In the case of `CCCCCCCCCS[C@@H]1O[C@H](CO)[C@@H](O[C@H]2O[C@H](CO)[C@@H](O)[C@H](O)[C@H]2O)[C@H](O)[C@H]1O` [n-Nonyl-b-D-thiomaltoside], the CMC [1] is given as 3.2 mM.
In the case of `CCCCCCCCCC(=O)N(C)C[C@H](O)[C@@H](O)[C@H](O)[C@H](O)CO` [MEGA-10], the CMC [1] is listed as 7 mM.
In the case of `CCCCCCCCS[C@@H]1O[C@H](CO)[C@@H](O[C@H]2O[C@H](CO)[C@@H](O)[C@H](O)[C@H]2O)[C@H](O)[C@H]1O` [n-Octyl-β-D-Thiomaltopyranoside], the CMC [1] is given as 8.8 mM.
For `OC[C@H]1O[C@H](O[C@H]2[C@H](O)[C@@H](O)[C@H](OCCCC3CCCCC3)O[C@@H]2CO)[C@H](O)[C@@H](O)[C@@H]1O` [CYMAL ®-3, 3-Cyclohexyl-1-Propyl-β-D-Maltoside], the CMC [1] is listed as 34.5 mM.
For Sucrose monolaurate, the CMC [1] is given as 0.3 mM.
In the case of `CCCCCCCCCO[C@@H]1O[C@H](CO)[C@@H](O)[C@H](O)[C@H]1O` [n-Nonyl-b-D-glucoside], the CMC [1] is listed as 6.5 mM.
In the case of `CCCCCCCNC(=O)OC[C@H]1O[C@H](OC)[C@H](O)[C@@H](O)[C@@H]1O` [HECAMEG ®], the CMC [1] is given as 19.5 mM.
For `CCCCCCCCCC(=O)N(CCO)C[C@H](O)[C@@H](O)[C@H](O)[C@H](O)CO` [HEGA ®-10], the CMC [1] is given as 7 mM.
In the case of `OC[C@H]1O[C@H](O[C@H]2[C@H](O)[C@@H](O)[C@H](OCCCCC3CCCCC3)O[C@@H]2CO)[C@H](O)[C@@H](O)[C@@H]1O` [CYMAL ®-4, 4-Cyclohexyl-1-Butyl-β-D-Maltoside], the CMC [1] is listed as 7.6 mM.
In the case of n-Decanoylsucrose, the CMC [1] is listed as 2.5 mM.
For `CCCCCCCCOCCOCCOCCOCCOCCO` [Detergent C8E5], the CMC [1] is given as 7.1 mM.
With `CCCCCCCCCCOCCOCCOCCOCCOCCOCCO` [Anapoe C10E6] the “Viral inactivation towards xMuLV (CPE)” value (xMuLV) was “did not”.
